Data on 21 compounds can be found in patent US20230373985A1 (Origenis Gmbh, priority 2020, published 2023).

Where only a bound is given, the exact number is not on record here.

For assay [1], the target named is T1, wt human TYK2, catalytic site (Homo sapiens, UniProt P29597).
T1 construct: wt human TYK2, catalytic site; purchased SignalChem
T1 sequence (P29597 897-1176 limits assumed): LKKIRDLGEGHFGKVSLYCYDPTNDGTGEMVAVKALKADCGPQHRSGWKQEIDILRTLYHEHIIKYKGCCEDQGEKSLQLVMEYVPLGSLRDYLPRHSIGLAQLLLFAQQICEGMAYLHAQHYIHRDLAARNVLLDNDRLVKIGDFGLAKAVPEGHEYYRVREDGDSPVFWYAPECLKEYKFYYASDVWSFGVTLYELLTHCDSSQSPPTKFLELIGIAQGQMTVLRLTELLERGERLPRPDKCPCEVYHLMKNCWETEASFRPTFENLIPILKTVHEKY
Put plainly: HTRF KinEASE assay, TYK2. Type of assay: biochemical. The note with it: 1 μM ATP; read-out: IC50, Activity Toward TYK2. In outline:
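HTRF KinEASE-TK readout with 1 μM biotinylated TK substrate in 1× kinase buffer, ≥30 min at room temperature, then antibody/streptavidin-XL665 detection for 60 min. TYK2 at 2 nM with 1 μM ATP; JAK2 at 1 nM with 100 μM ATP. Analysis uses emission ratios.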

For assay [2], the target named is T2, wt human JAK1, catalytic site (Homo sapiens, UniProt P23458).
T2 construct: wt human JAK1, catalytic site; purchased ThermoFisher
T2 sequence (P23458 875-1153 limits assumed): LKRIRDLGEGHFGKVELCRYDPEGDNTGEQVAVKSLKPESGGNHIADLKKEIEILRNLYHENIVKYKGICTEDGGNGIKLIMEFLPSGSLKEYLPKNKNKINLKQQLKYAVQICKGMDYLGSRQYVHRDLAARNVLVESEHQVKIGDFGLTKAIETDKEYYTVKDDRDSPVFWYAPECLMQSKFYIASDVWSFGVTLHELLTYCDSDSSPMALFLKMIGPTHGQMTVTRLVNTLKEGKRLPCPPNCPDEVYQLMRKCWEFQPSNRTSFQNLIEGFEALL
Kind of assay: HTRF KinEASE assay, JAK1. Type of assay: biochemical. The note with it: 2.5 μM ATP; read-out: IC50, Activity Toward JAK1. As to the method: Basic protocol for HTRF KinEASE assay (Cisbio/FRA) inhibitor studies involved two steps: • Enzymatic step: Addition of 4 μL of test compound in corresponding DMSO dilutions, 4 μL of kinase/substrate mixture, 2 μL of ATP into 384 well small volume plates. Incubation for at least 30 minutes at room temperature. • Detection step: Addition of 5 μL antibody and 5 μL streptavidin-XL665, read plate after 60 minutes. Data analysis of emission ratios according KinEASE assay protocol.
(§1) Kinase and assay components were adjusted to final concentrations according to kit protocol. For TYK2: 2 nM wt human TYK2, catalytic site (SignalChem/CAN), 1 μM HTRF KinEASE-TK Substrate-biotin, 1 μM ATP in 1× Kinase Buffer. […] For JAK2: 1 nM wt human JAK2, catalytic site (SignalChem/CAN), 1 μM HTRF KinEASE-TK Substrate-biotin, 100 μM ATP in 1× Kinase Buffer.
as §1

For the compound `NC(=O)c1nn(-c2c(Cl)cccc2Cl)cc1Nc1ccc(-n2nc(C(F)(F)F)nc2CO)nc1` [compound 385, 1-(2,6-dichlorophenyl)-4-((6-(5-(hydroxymethyl)-3-(trifluoromethyl)-1H-1,2,4-triazol-1-yl)pyridin-3-yl)amino)-1H-pyrazole-3-carboxamide], the IC50 in assay [1] was 10 to 100 nM; in assay [2], 100 to 1000 nM.
Regarding `Cn1cc(C(F)(F)F)nc1-c1ccc(Nc2cn(-c3c(Cl)cccc3Cl)nc2C(N)=O)cc1` [compound 294, 1-(2,6-dichlorophenyl)-4-((4-(1-methyl-4-(trifluoromethyl)-1H-imidazol-2-yl)phenyl)amino)-1H-pyrazole-3-carboxamide], the figures for the concentration for half-maximal inhibition (IC50) in assay [1] and in assay [2] were less than 10 nM and 10 to 100 nM, respectively.
For `NC(=O)c1nn(-c2c(Cl)cccc2Cl)cc1Nc1ccc(C(=O)N2CCOCC2)nc1` [compound 365, 1-(2,6-dichlorophenyl)-4-((6-(morpholine-4-carbonyl)pyridin-3-yl)amino)-1H-pyrazole-3-carboxamide], in that order: 10 to 100 nM and 10 to 100 nM.
For `NC(=O)c1nn(-c2c(Cl)cccc2Cl)nc1Nc1cnn(CC(=O)N2CCOCC2)c1` [compound 168, 2-(2,6-dichlorophenyl)-5-((1-(2-morpholino-2-oxoethyl)-1H-pyrazol-4-yl)amino)-2H-1,2,3-triazole-4-carboxamide] the same measures were 10 to 100 nM and 10 to 100 nM.
As for `NC(=O)c1nn(-c2c(Cl)cccc2Cl)nc1Nc1ccc(C(=O)N2CC(O)C2)cn1` [compound 154, 2-(2,6-dichlorophenyl)-5-((5-(3-hydroxyazetidine-1-carbonyl)pyridin-2-yl)amino)-2H-1,2,3-triazole-4-carboxamide], the IC50 in assay [1] and in assay [2] was 10 to 100 nM in each case.
As to `Cc1nnnn1-c1ccc(Nc2nn(-c3c(Cl)cccc3Cl)nc2C(N)=O)nc1` [compound 134, 2-(2,6-dichlorophenyl)-5-((5-(5-methyl-1H-tetrazol-1-yl)pyridin-2-yl)amino)-2H-1,2,3-triazole-4-carboxamide], the IC50 in assay [1] and in assay [2] was 10 to 100 nM each time.
As to `CN(C)Cc1nc(C(F)(F)F)nn1-c1ccc(Nc2cn(-c3c(Cl)cccc3Cl)nc2C(N)=O)cc1` [compound 297, 1-(2,6-dichlorophenyl)-4-((4-(5-((dimethylamino)methyl)-3-(trifluoromethyl)-1H-1,2,4-triazol-1-yl)phenyl)amino)-1H-pyrazole-3-carboxamide], the IC50 in assay [1] is less than 10 nM; in assay [2], 100 to 1000 nM.
As to `Cc1ccc(=O)n(-c2ccc(Nc3cn(-c4c(Cl)cccc4Cl)nc3C(N)=O)cc2)n1` [compound 72, 1-(2,6-dichlorophenyl)-4-((4-(3-methyl-6-oxopyridazin-1(6H)-yl)phenyl)amino)-1H-pyrazole-3-carboxamide], the IC50 in assay [1] is 10 to 100 nM; in assay [2] it was 100 to 1000 nM.
Regarding `Cc1nn(-c2ccc(Nc3cn(-c4c(Cl)cccc4Cl)nc3C(N)=O)cc2)c(C)c1C` [compound 224, 1-(2,6-dichlorophenyl)-4-((4-(3,4,5-trimethyl-1H-pyrazol-1-yl)phenyl)amino)-1H-pyrazole-3-carboxamide], the IC50 in assay [1] and in assay [2] was 100 to 1000 nM in each case.
For `CC1(C)CN(C(=O)c2ccc(Nc3nn(-c4c(Cl)cccc4Cl)nc3C(N)=O)nc2)C1` [compound 165, 2-(2,6-dichlorophenyl)-5-((5-(3,3-dimethylazetidine-1-carbonyl)pyridin-2-yl)amino)-2H-1,2,3-triazole-4-carboxamide], the IC50 in assay [1] was in the range of 10 to 100 nM; in assay [2], 100 to 1000 nM.
For the compound `Cn1nnnc1-c1ccc(Nc2nn(-c3c(Cl)cccc3Cl)nc2C(N)=O)nc1` [compound 158, 2-(2,6-dichlorophenyl)-5-((5-(1-methyl-1H-tetrazol-5-yl)pyridin-2-yl)amino)-2H-1,2,3-triazole-4-carboxamide], the IC50 in assay [1] and in assay [2] was 10 to 100 nM throughout.
For `COCCc1nc(C(F)(F)F)nn1-c1ccc(Nc2cn(-c3c(Cl)cccc3Cl)nc2C(N)=O)cc1` [compound 330, 1-(2,6-dichlorophenyl)-4-((4-(5-(2-methoxyethyl)-3-(trifluoromethyl)-1H-1,2,4-triazol-1-yl)phenyl)amino)-1H-pyrazole-3-carboxamide], the IC50 in assay [1] and in assay [2] was 10 to 100 nM in each case.
`Cn1nnnc1-c1ccc(Nc2cn(-c3c(Cl)cccc3Cl)nc2C(N)=O)cn1` [compound 375, 1-(2,6-dichlorophenyl)-4-((6-(1-methyl-1H-tetrazol-5-yl)pyridin-3-yl)amino)-1H-pyrazole-3-carboxamide]: the IC50 in assay [1] was in the range of 10 to 100 nM; in assay [2], 100 to 1000 nM.
For `COCc1nc(C(F)(F)F)nn1-c1ccc(Nc2cn(-c3c(Cl)cccc3Cl)nc2C(N)=O)cc1` [compound 281, 1-(2,6-dichlorophenyl)-4-((4-(5-(methoxymethyl)-3-(trifluoromethyl)-1H-1,2,4-triazol-1-yl)phenyl)amino)-1H-pyrazole-3-carboxamide], in that order: less than 10 nM and 100 to 1000 nM.
For `Cc1nnnn1-c1ccc(Nc2cn(-c3c(Cl)cccc3Cl)nc2C(N)=O)nc1` [compound 435, 1-(2,6-dichlorophenyl)-4-((5-(5-methyl-1H-tetrazol-1-yl)pyridin-2-yl)amino)-1H-pyrazole-3-carboxamide], in that order: 10 to 100 nM and 10 to 100 nM.
For `NC(=O)c1nn(-c2c(Cl)cccc2Cl)nc1Nc1ccc(C(=O)NCCF)cc1` [compound 128, 2-(2,6-dichlorophenyl)-5-((4-((2-fluoroethyl)carbamoyl)phenyl)amino)-2H-1,2,3-triazole-4-carboxamide], in that order: less than 10 nM and less than 10 nM.
`CC(C)c1ccn(-c2ccc(Nc3cn(-c4c(Cl)cccc4Cl)nc3C(N)=O)cc2)n1` [compound 263, 1-(2,6-dichlorophenyl)-4-((4-(3-isopropyl-1H-pyrazol-1-yl)phenyl)amino)-1H-pyrazole-3-carboxamide]: the IC50 in assay [1] and in assay [2] was 100 to 1000 nM in each case.
Regarding `Cc1ccn(-c2ccc(Nc3cn(-c4c(Cl)cccc4Cl)nc3C(N)=O)cc2)n1` [compound 75, 1-(2,6-dichlorophenyl)-4-((4-(3-methyl-1H-pyrazol-1-yl)phenyl)amino)-1H-pyrazole-3-carboxamide], the IC50 in assay [1] and in assay [2] was 100 to 1000 nM in each case.
`NC(=O)c1nn(-c2c(Cl)cccc2Cl)nc1Nc1ccc(C(=O)N2CCOCC2)cn1` [compound 140, 2-(2,6-dichlorophenyl)-5-((5-(morpholine-4-carbonyl)pyridin-2-yl)amino)-2H-1,2,3-triazole-4-carboxamide]: the IC50 lay within 10 to 100 nM in assay [1] and 100 to 1000 nM in assay [2].
For `COCc1nc(C(F)(F)F)nn1-c1ccc(Nc2cn(-c3c(F)cccc3Cl)nc2C(N)=O)cc1` [compound 298, 1-(2-chloro-6-fluorophenyl)-4-((4-(5-(methoxymethyl)-3-(trifluoromethyl)-1H-1,2,4-triazol-1-yl)phenyl)amino)-1H-pyrazole-3-carboxamide], in that order: 10 to 100 nM and 100 to 1000 nM.
For `CC(C)(C)NC(=O)c1ccc(Nc2cn(-c3c(F)cccc3Cl)nc2C(N)=O)cc1F` [compound 29] the same measures were 10 to 100 nM and 100 to 1000 nM.
